From patent publication US20080221116A1, “ISOXAZOLINE ALPHA 1a/1d ADRENORECEPTOR ANTAGONISTS” (priority 2006, published 2008)
Where “and” joins values, the source holds several entries; their conditions need not be identical. Equal entries are not always repeated. Where two headings read alike, the source gives them in different places.

Key:
Conditions in all cases: COS-7 membranes
α1a-AR = molecular target: T1, α1a-AR (Homo sapiens, UniProt P35348); assay: α1-Adrenergic Receptor Binding Assay, 125I-HEAT radio-ligand binding, transfected COS-7 cell membranes, α1a subtype
T1 construct: expressed in transfected cells; host or cells: COS-7 cells (African Green monkey kidney), membranes
T1 sequence (P35348 1-466): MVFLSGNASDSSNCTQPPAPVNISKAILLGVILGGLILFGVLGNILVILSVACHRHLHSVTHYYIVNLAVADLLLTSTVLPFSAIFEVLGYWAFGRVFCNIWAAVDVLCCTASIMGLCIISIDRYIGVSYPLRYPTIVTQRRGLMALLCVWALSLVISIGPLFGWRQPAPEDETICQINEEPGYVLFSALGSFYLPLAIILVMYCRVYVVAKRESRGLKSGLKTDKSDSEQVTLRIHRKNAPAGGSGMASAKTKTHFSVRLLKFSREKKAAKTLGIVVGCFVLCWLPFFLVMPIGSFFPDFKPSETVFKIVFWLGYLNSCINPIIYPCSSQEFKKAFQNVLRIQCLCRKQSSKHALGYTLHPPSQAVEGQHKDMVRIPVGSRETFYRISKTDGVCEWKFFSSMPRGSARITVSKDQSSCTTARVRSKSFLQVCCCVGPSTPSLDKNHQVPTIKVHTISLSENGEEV
Experimental: (§1) Membranes were prepared from COS-7 cells (African Green monkey kidney SV40-transformed cells) that had been transfected with one of the three α1-AR subtypes by the following method: COS cells from ten 100 mm tissue culture plates were scraped into a 5 ml volume of TE (a mixture of 50 mM tris(hydroxymethyl)aminomethane hydrochloride (Tris-HCl) and 5 mM ethylenediaminetetraacetic acid (EDTA) at pH 7.4). The cell suspension was disrupted with a Brinkman Polytron (at a setting of 8) for 10 sec. The disrupted cells were centrifuged at 1000×g for 10 min at 4° C. Supernatants were centrifuged at 34,500×g for 20 min at 4° C. The membrane pellets were suspended in a 2 ml volume of TNE (a mixture of 50 mM Tris-HCl, 5 mM EDTA and 150 mM NaCl at pH7.4). An aliquot of the membrane suspension was stored at −70° C. until use. The protein concentration was determined using a BioRad “DC” protein assay kit following membrane solubilization with Triton X-100.
(§2) Triplicate determinations of radio-ligand binding in the presence of increasing concentrations of testing compound were made. The reagents were added to 96-well polypropylene plate wells. Each assay well contained 140 μL TNE, 25 μL 125′-2-(β-4-hydroxyphenyl)ethylaminomethyltetralone (^125I-HEAT) (specific activity 2200 Ci/mmol, Dupont-New England Nuclear, […] final), 10 μL testing compound dissolved in dimethyl sulfoxide (DMSO) ([…] to 10 μM in half-log increments, final), and 25 μL appropriate α1-AR membrane subtype suspension in TNE (0.5 ng/μL for the α1a and α1b subtypes and 13 ng/μL for the α1d subtype). The plate was incubated at rt for 1 hr. The contents of the wells were filtered through a glass filter (type C) (GF/C) membrane Unifilter plate (Packard Instruments) using the Packard Filtermate cell harvester. The filter plates were dried in a vacuum oven for 30 min at 40° C. 25 μL Microscint 20 liquid scintillation fluid (Packard Instuments) was added to each well. The radioactive content was analyzed in the TopCount microplate scintillation counter (Packard Instruments).
(§3) The Ki values (in nM) shown in Table 1 were determined using GraphPad Prism software.

α1b-AR = molecular target: T2, α1b-AR (Homo sapiens, UniProt P35368); assay: α1-Adrenergic Receptor Binding Assay, 125I-HEAT radio-ligand binding, transfected COS-7 cell membranes, α1b subtype
T2 construct: expressed in transfected cells; host or cells: COS-7 cells (African Green monkey kidney), membranes
T2 sequence (P35368 1-520): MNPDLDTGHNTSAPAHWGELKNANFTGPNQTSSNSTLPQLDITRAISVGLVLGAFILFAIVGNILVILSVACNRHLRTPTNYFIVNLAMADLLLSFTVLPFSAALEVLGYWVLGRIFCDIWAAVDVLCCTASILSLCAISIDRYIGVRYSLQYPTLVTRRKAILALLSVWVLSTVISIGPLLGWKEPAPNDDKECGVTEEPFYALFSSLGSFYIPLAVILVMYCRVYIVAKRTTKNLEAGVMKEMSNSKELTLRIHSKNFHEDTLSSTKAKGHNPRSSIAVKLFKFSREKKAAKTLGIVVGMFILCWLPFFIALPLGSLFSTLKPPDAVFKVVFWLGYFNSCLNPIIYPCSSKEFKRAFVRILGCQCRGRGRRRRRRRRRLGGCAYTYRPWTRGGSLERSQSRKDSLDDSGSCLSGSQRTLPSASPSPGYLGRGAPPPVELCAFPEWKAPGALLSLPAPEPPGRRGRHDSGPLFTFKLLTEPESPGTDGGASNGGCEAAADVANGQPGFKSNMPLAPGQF
Experimental: as §1, §2, §3

α1d-AR = molecular target: T3, α1d-AR (Homo sapiens, UniProt P25100); assay: α1-Adrenergic Receptor Binding Assay, 125I-HEAT radio-ligand binding, transfected COS-7 cell membranes, α1d subtype
T3 construct: expressed in transfected cells; host or cells: COS-7 cells (African Green monkey kidney), membranes
T3 sequence (P25100 1-572): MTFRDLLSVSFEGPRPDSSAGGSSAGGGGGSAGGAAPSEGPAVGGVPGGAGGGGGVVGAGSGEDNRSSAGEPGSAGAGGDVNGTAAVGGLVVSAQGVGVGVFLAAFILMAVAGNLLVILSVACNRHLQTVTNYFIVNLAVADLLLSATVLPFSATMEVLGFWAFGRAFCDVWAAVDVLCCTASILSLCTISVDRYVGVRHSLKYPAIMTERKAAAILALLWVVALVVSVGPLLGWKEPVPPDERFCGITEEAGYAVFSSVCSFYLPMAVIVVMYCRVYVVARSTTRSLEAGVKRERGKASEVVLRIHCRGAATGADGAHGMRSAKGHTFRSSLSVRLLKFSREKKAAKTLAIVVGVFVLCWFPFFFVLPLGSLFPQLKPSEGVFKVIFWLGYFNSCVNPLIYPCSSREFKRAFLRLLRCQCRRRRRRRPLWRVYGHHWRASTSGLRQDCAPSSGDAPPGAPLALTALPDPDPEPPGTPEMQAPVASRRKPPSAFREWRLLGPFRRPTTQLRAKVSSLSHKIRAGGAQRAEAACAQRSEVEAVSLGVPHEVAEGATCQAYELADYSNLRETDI
Experimental: as §1, §2, §3

[1] = average value, read-out: Alpha 1 Ki α1a (1) Average Value
[2] = individual values, read-out: Alpha 1 Ki α1a (2) Individual Values
[3] = average value, read-out: Alpha 1 Ki α1b (1) Average Value
[4] = individual values, read-out: Alpha 1 Ki α1b (2) Individual Values
[5] = average value, read-out: Alpha 1 Ki α1d (1) Average Value
[6] = individual values, read-out: Alpha 1 Ki α1d (2) Individual Values

Row | Structure (SMILES) | Ki (α1a-AR; [1]) | Ki (α1a-AR; [2]) | Ki (α1b-AR; [3]) | Ki (α1b-AR; [4]) | Ki (α1d-AR; [5]) | Ki (α1d-AR; [6])
1 | CC(C)Oc1ccccc1N1CCN(CC2CC(CN3CCCCC3=O)=NO2)CC1 (stereo not shown) [Compound 1, 1-{5-[4-(2-isopropoxy-phenyl)-piperazin-1-ylmethyl]-4,5-dihydro-isoxazol-3-ylmethyl}-piperidin-2-one] | 0.96 nM | 0.96 nM | 82 nM | 82 nM | 8.5 nM | 8.5 nM
2 | CC(C)Oc1ccccc1N1CCN(CC2CC(CN3CCc4ccccc43)=NO2)CC1 (stereo not shown) [Compound 4, 1-{5-[4-(2-isopropoxy-phenyl)-piperazin-1-ylmethyl]-4,5-dihydro-isoxazol-3-ylmethyl}-2,3-dihydro-1H-indole] | 1.9 nM | 1.9 nM | 101 nM | 101 nM | 10 nM | 10 nM
3 | CC(C)Oc1ccccc1N1CCN(CC2CC(CN3CCCCC3)=NO2)CC1 (stereo not shown) [Compound 5, 1-(2-isopropoxy-phenyl)-4-(3-piperidin-1-ylmethyl-4,5-dihydro-isoxazol-5-ylmethyl)-piperazine] | 10 nM | 10 nM | 5000 nM | 5000 nM | 178 nM | 178 nM
4 | CC(C)Oc1ccccc1N1CCN(CC2CC(CN3CCc4ccc(N)cc43)=NO2)CC1 (stereo not shown) [Compound 6, 1-{5-[4-(2-isopropoxy-phenyl)-piperazin-1-ylmethyl]-4,5-dihydro-isoxazol-3-ylmethyl}-2,3-dihydro-1H-indol-6-ylamine] | 4.3 nM | 4.3 nM | 410 nM | 410 nM | 46 nM | 46 nM
5 | CC(C)Oc1ccccc1N1CCN(CC2CC(CN3CCc4ccc(NCc5c(F)cccc5F)cc43)=NO2)CC1 (stereo not shown) [Compound 7, (2,6-difluoro-benzyl)-(1-{5-[4-(2-isopropoxy-phenyl)-piperazin-1-ylmethyl]-4,5-dihydro-isoxazol-3-ylmethyl}-2,3-dihydro-1H-indol-6-yl)-amine] | 6.4 nM | 6.4 nM | 172 nM | 172 nM | 9.4 nM | 9.4 nM
6 | CC(C)Oc1ccccc1N1CCN(CC2CC(CN3CCc4ccc(NCc5ccccc5F)cc43)=NO2)CC1 (stereo not shown) [Compound 8, (2-fluoro-benzyl)-(1-{5-[4-(2-isopropoxy-phenyl)-piperazin-1-ylmethyl]-4,5-dihydro-isoxazol-3-ylmethyl}-2,3-dihydro-1H-indol-6-yl)-amine] | 6.9 nM | 6.9 nM | 304 nM | 304 nM | 35 nM | 35 nM

Other lines, results leading:

Row | Ki (α1a-AR; [1]) | Ki (α1a-AR; [2]) | Ki (α1b-AR; [3]) | Ki (α1b-AR; [4]) | Ki (α1d-AR; [5]) | Ki (α1d-AR; [6]) | Structure (SMILES)
7 | 34 nM | 34 nM | 195 nM | 195 nM | 22 nM | 22 nM | COc1cccc(CNc2ccc3c(c2)N(CC2=NOC(CN4CCN(c5ccccc5OC(C)C)CC4)C2)CC3)c1 (stereo not shown) [Compound 9, (1-{5-[4-(2-isopropoxy-phenyl)-piperazin-1-ylmethyl]-4,5-dihydro-isoxazol-3-ylmethyl}-2,3-dihydro-1H-indol-6-yl)-(3-methoxy-benzyl)-amine]
8 | 2.12 nM | 1.4 nM and 3.4 nM and 3.1 nM and 1.9 nM and 0.8 nM | 107 nM | 90 nM and 145 nM and 92 nM and 87.6 nM and 121 nM | 1.3 nM |  | CC(C)Oc1ccccc1N1CCN(CC2CC(C(=O)N3CCc4ccccc43)=NO2)CC1 (stereo not shown) [Compound 10, (2,3-dihydro-indol-1-yl)-{5-[4-(2-isopropoxy-phenyl)-piperazin-1-ylmethyl]-4,5-dihydro-isoxazol-3-yl}-methanone]
9 | 1.42 nM | 2.2 nM and 0.63 nM | 145 nM | 153 nM and 136 nM | 1.82 nM | 3.1 nM and 0.55 nM | CC(C)Oc1ccccc1N1CCN(CC2CC(C(=O)N3CCc4ccc([N+](=O)[O-])cc43)=NO2)CC1 (stereo not shown) [Compound 11, {5-[4-(2-isopropoxy-phenyl)-piperazin-1-ylmethyl]-4,5-dihydro-isoxazol-3-yl}-(6-nitro-2,3-dihydro-indol-1-yl)-methanone]
10 | 1.81 nM | 1.02 nM and 1.7 nM and 2.7 nM | 249 nM | 334 nM and 174 nM and 239 nM | 17.8 nM | 29 nM and 18 nM and 6.26 nM | CC(C)Oc1ccccc1N1CCN(CC2CC(C(=O)N3CCCCC3)=NO2)CC1 (stereo not shown) [Compound 12, {5-[4-(2-isopropoxy-phenyl)-piperazin-1-ylmethyl]-4,5-dihydro-isoxazol-3-yl}-piperidin-1-yl-methanone]
11 | 2.48 nM | 1.31 nM and 2.4 nM and 3.7 nM and 2.5 nM | 191 nM | 402 nM and 147 nM and 134 nM and 82.8 nM | 6.08 nM |  | CC(C)Oc1ccccc1N1CCN(CC2CC(C(=O)N3CCc4cc(Br)ccc43)=NO2)CC1 (stereo not shown) [Compound 13, (5-bromo-2,3-dihydro-indol-1-yl)-{5-[4-(2-isopropoxy-phenyl)-piperazin-1-ylmethyl]-4,5-dihydro-isoxazol-3-yl}-methanone]
12 | 2 nM | 2 nM | 141 nM | 141 nM | 2.8 nM | 2.8 nM | CC(C)Oc1ccccc1N1CCN(CC2CC(C(=O)N3CCc4ccc(N)cc43)=NO2)CC1 (stereo not shown) [Compound 14, (6-amino-2,3-dihydro-indol-1-yl)-{5-[4-(2-isopropoxy-phenyl)-piperazin-1-ylmethyl]-4,5-dihydro-isoxazol-3-yl}-methanone]
13 | 9.6 nM | 9.6 nM | 128 nM | 128 nM | 11.6 nM | 11.6 nM | CC(C)Oc1ccccc1N1CCN(CC2CC(C(=O)N3CCc4ccc(NCc5ccccc5F)cc43)=NO2)CC1 (stereo not shown) [Compound 15, [6-(2-fluoro-benzylamino)-2,3-dihydro-indol-1-yl]-{5-[4-(2-isopropoxy-phenyl)-piperazin-1-ylmethyl]-4,5-dihydro-isoxazol-3-yl}-methanone]
